In patent publication US6630502B2, “Method for preventing, stabilizing or causing regression of atherosclerosis employing a combination of a cholesterol lowering drug and an ace inhibitor” (E.R. Squibb & Sons, Inc., priority 1990, dated 2003):
Marks after values point to notes of the source that are not given here.

Columns and labels:
[1] = Body weight, mean arterial pressure and heart rate of cholesterol-fed hamsters treated for 8 weeks; assay type: in vivo, hamster; conditions: at 8 weeks
Protocol: (§1) Male F1 hamsters were fed 0.3% cholesterol and 10% coconut oil.
(§2) Four sets of hamsters were established (n=12-13 per group). The groups were controls, pravastatin (34 mg/kg/day), captopril (100 mg/kg/day) and pravastatin plus captopril (32 and 100 mg/kg/day, respectively). All animals were fed the same atherogenic diet. Pravastatin was delivered via the diet and captopril was gavaged daily. Hamsters in the control and pravastatin groups were gavaged with water. The animals were treated for 8 weeks. At 3 and 6 weeks the animals were fasted overnight and bled to determine plasma cholesterols and triglycerides. At 8 weeks, mean arterial pressure and heart rate were measured and then the animals were fixed by perfusing formalin. The aortic arch was stained with oil red O and the total area of the fatty streak (which consists of macrophage-foam cells) was measured by computer assisted image analysis.

[2] = as above; assay type: in vivo, hamster; conditions: mean ± SD, combination 33 + 100 mg/kg/day; for HR (Heart Rate) / MAP (Mean Arterial Pressure): at 8 weeks, pravastatin 34 mg/kg/day, captopril 100 mg/kg/day; for Body Weight: hamsters on atherogenic diet, 8 weeks, pravastatin 34 mg/kg/day (diet), captopril 100 mg/kg/day (gavage)
[3] = Plasma lipids of cholesterol-fed hamsters (control and treated); assay type: in vivo, hamster; conditions: mean ± SD, at 5 weeks, pravastatin 34 mg/kg/day, captopril 100 mg/kg/day, combination 33 + 100 mg/kg/day
Protocol: as §1
as §2, with “The groups were controls, pravastatin (34 mg/kg/day), captopril (100 mg/kg/day) and pravastatin plus captopril (32 and 100 mg/kg/day, respectively).” left out, “At 3 and 6 weeks the animals were fasted overnight and bled to determine plasma cholesterols and triglycerides.” left out

[4] = system: fatty streak (macrophage-foam cells) of the aortic arch; assay: Fatty streak area in the aortic arch (oil red O, image analysis) of cholesterol-fed hamsters; assay type: in vivo, hamster; conditions: 8 weeks; for Fatty Streak Area: mean ± SD, 6 arches per group, pravastatin 34 mg/kg/day, captopril 100 mg/kg/day, combination 33 + 100 mg/kg/day
Protocol: as §1
as §2, with “The groups were controls, pravastatin (34 mg/kg/day), captopril (100 mg/kg/day) and pravastatin plus captopril (32 and 100 mg/kg/day, respectively).” left out

[5] = hypercholesterolemic patients; cited from earlier work

SMILES	heart rate less than control hamsters ([1]; compared with control hamsters)	mean arterial pressure lower than controls ([1]; compared with control hamsters)	HR (Heart Rate) [2]	MAP (Mean Arterial Pressure) [2]	Body Weight [2]	HDL-C [3]	TC [3]	TG [3]	VLDL + LDL-C [3]	reduction of fatty streak (lesion) area compared to control group [4]	Fatty Streak Area [4]	change of serum cholesterol [5]	increase of HDL [5]	effect on blood pressure ([1]; 34 mg/kg/day)	effect on heart rate ([1]; 34 mg/kg/day)
C[C@H](CS)C(=O)N1CCC[C@H]1C(=O)O [Captopril, 1-[(2S)-3-mercapto-2-methylpropionyl]-L-proline]	7%	21%	348 ± 22^a beats/min.	110 ± 17^a mmHg	133 ± 12 g	72 ± 23 mg/dL	660 ± 94 mg/dL	1105 ± 259 mg/dL	588 ± 83 mg/dL	approximately 50%	245 ± 154^c μm^2 × 10^3	−18%	27%		
CC[C@H](C)C(=O)O[C@H]1C[C@H](O)C=C2C=C[C@H](C)[C@H](CC[C@@H](O)C[C@@H](O)CC(=O)O)[C@H]21 [Pravastatin, pravastatin]			355 ± 27 beats/min.	138 ± 13 mmHg	139 ± 8 g	117 ± 7^a mg/dl	456 ± 107^a mg/dl	185 ± 34^a mg/dl	339 ± 93^a mg/dl	approximately 50%	248 ± 119^b μm^2 × 10^3			no effect	no effect
